Experimental data as given in ChEMBL document CHEMBL3813605, “Jatrophane and ingenane-type diterpenoids from Euphorbia kansui inhibit the LPS-induced NO production in RAW 264.7 cells” (Bioorg Med Chem Lett, 2016).

Tests used:
RAW264.7 [1] = experiment: Antiinflammatory activity in mouse RAW264.7 cells assessed as inhibition of LPS-induced NO production incubated for 24 hrs by Griess method; format: functional, cell-based; conditions: RAW264.7, 24 h
RAW264.7 [2] = experiment: Cytotoxicity against mouse RAW264.7 cells assessed as reduction in cell viability by MTT assay; format: cell-based

Structure (SMILES) | IC50 (RAW264.7 [1]) [µM] | Activity (RAW264.7 [2])
CC(=O)O[C@H]1C(C)=C[C@]23C(=O)[C@@H](C=C(CO)[C@@H](OC(=O)c4ccccc4)[C@]12O)[C@H]1[C@@H](C[C@H]3C)C1(C)C | 29.5 | Non-toxic
CC1=C[C@@H]2C(=O)[C@]3(C=C(C)[C@H](OC(=O)c4ccccc4)[C@@]3(O)[C@@H]1O)[C@H](C)C[C@@H]1[C@H]2C1(C)C | 16 | Non-toxic
CCCCC/C=C\C=C\C(=O)O[C@H]1C(C)=C[C@]23C(=O)[C@@H](C=C(COC(C)=O)[C@@H](O)[C@]12O)[C@H]1[C@@H](C[C@H]3C)C1(C)C | 5.1 | Non-toxic
CC1=C[C@]23C(=O)[C@@H](C=C(CO)[C@@H](O)[C@]2(O)[C@H]1O)[C@H]1[C@@H](C[C@H]3C)C1(C)C [INGENOL] | > 100 | Non-toxic
C=C1[C@@H](OC(C)=O)[C@@H](OC(=O)c2ccccc2)[C@@H](OC(C)=O)C(C)(C)[C@H]2O[C@](O)([C@H](C)C2=O)[C@@]2(OC(C)=O)C[C@@](C)(O)[C@H](OC(C)=O)[C@@H]2[C@H]1OC(C)=O | 50.2 | Non-toxic
C=C1[C@@H](OC(C)=O)[C@@H](OC(=O)c2ccccc2)[C@@H](OC(=O)c2cccnc2)C(C)(C)[C@H]2O[C@](O)([C@H](C)C2=O)[C@@]2(OC(C)=O)C[C@H](C)[C@H](OC(C)=O)[C@@H]2[C@H]1OC(C)=O | 22.1 | Non-toxic
C=C1[C@H](OC(C)=O)[C@@H](OC(=O)c2ccccc2)[C@H](OC(=O)c2cccnc2)C(C)(C)[C@H]2O[C@@H]2[C@@H](C)C(=O)[C@@]2(OC(C)=O)C[C@H](C)[C@H](OC(C)=O)[C@@H]2[C@H]1OC(C)=O | 6.3 | Non-toxic
CCCCC/C=C/C=C/C(=O)O[C@H]1C(C)=C[C@]23C(=O)[C@@H](C=C(COC(C)=O)[C@@H](O)[C@]12O)[C@H]1[C@@H](C[C@H]3C)C1(C)C | 0.7 | Non-toxic
C=C1[C@@H](OC(C)=O)[C@@H](OC(=O)c2ccccc2)[C@@H](OC(C)=O)C(C)(C)[C@H]2O[C@](O)([C@H](C)C2=O)[C@@]2(OC(C)=O)C[C@H](C)[C@H](OC(C)=O)[C@@H]2[C@H]1OC(C)=O | 2.9 | Non-toxic
N=C(N)NN [PIMAGEDINE] | 18.7 | 
CCCCC/C=C/C=C/C(=O)O[C@@H]1C(COC(C)=O)=C[C@@H]2C(=O)[C@]3(C=C(C)[C@H](O)[C@@]13O)[C@H](C)C[C@@H]1[C@H]2C1(C)C | 7.6 | Non-toxic
CCCCC/C=C\C=C\C(=O)O[C@@H]1C(COC(C)=O)=C[C@@H]2C(=O)[C@]3(C=C(C)[C@H](O)[C@@]13O)[C@H](C)C[C@@H]1[C@H]2C1(C)C | 10.1 | Non-toxic
C=C1[C@H](OC(=O)c2ccccc2)[C@H]2[C@@H](OC(C)=O)[C@](C)(O)[C@@H](OC(C)=O)[C@]2(O)C(=O)[C@@H](C)/C=C/C(C)(C)C(=O)[C@H](OC(C)=O)[C@H]1OC(=O)c1ccccc1 | 16.4 | Non-toxic
CCCCC/C=C\C=C\C(=O)O[C@H]1C(C)=C[C@]23C(=O)[C@@H](C=C(C)[C@@H](O)[C@]12O)[C@H]1[C@@H](C[C@H]3C)C1(C)C | 14.1 | Non-toxic
C=C1[C@H](OC(=O)c2ccccc2)[C@H]2[C@@H](OC(C)=O)[C@](C)(O)[C@@H](O)[C@]2(OC(C)=O)C(=O)[C@@H](C)/C=C/C(C)(C)C(=O)[C@H](O)[C@H]1OC(=O)c1ccccc1 | 46.5 | Non-toxic
CC1=C[C@@H]2C(=O)[C@]3(C=C(C)[C@H](O)[C@@]3(O)[C@@H]1OC(=O)c1ccccc1)[C@H](C)C[C@@H]1[C@H]2C1(C)C | 3.1 | Non-toxic
CC(=O)OCC1=C[C@@H]2C(=O)[C@]3(C=C(C)[C@H](O)[C@@]3(O)[C@@H]1O)[C@H](C)C[C@@H]1[C@H]2C1(C)C | > 100 | Non-toxic
